Reference: patent US20220162610A1, “NOVEL RNA TRANSCRIPT” (PTC Therapeutics, Inc., priority 2020, published 2022)
Entries after “also recorded” stand apart in the source; their conditions may differ. Read-outs that look alike come from different tables or passages of the source.

Assays:
[1] = Phase 1 study, pharmacokinetics in plasma and CSF, food effect; type: in vivo, human
Text: The concentrations of Compound 1 in plasma and CSF were to be assessed in an open-label design in healthy male and female subjects. A single dose of Compound 1 was to be administered daily for 7 days in 1 cohort of 6 subjects (Cohort 3.1). The dose level of Part 3 was to be determined based upon a review of the safety, tolerability, and PK data of Part 1 and Part 2 of the study. While the MAD dose was to be determined further in development, that dose and schedule was to be applied to this part of the study.
Eligibility was to be assessed during a screening period of up to 28 days. Subjects were to check into the clinic 1 day before dosing (Day −1). On the morning of Day 1 to Day 7, Compound 1 was to be orally administered after an overnight fast of at least 10 hours each day. Serial sampling of CSF and sampling of plasma for drug concentrations was to be performed on Day 7. The exact timing of the CSF and blood samples was to be determined based on the results of Part 1 and Part 2. […]
The food effect (FE) part was a parallel, open-label part in healthy male and female subjects in up to 3 cohorts of 6 subjects each. […] The dose levels for this part were to be chosen based upon a review of available safety, tolerability and PK data as determined in Part 1 and Part 2.

[2] = Phase 1 study, safety and tolerability in healthy subjects; type: in vivo, human
Description: The study was monitored by a Safety Review Committee (SRC). […] Safety and tolerability were assessed by the SRC between each cohort prior to ascending from one dose level to the next higher dose level in Part 1 (single ascending dose [SAD]) and Part 2 (multiple ascending dose [MAD]), and prior to initiating Part 3 (CSF), Part 4 (FE), and Part 5.
Change from baseline to each scheduled time point up to EOS for vital signs; Change from baseline to each scheduled time point up to EOS for ECG parameters; Change from baseline to each scheduled time point up to EOS for clinical laboratory tests; Changes from baseline in C-SSRS scores (Part 2, Part 3, and Part 5 only); Treatment-emergent adverse events (AEs) up to EOS; Treatment-emergent AEs leading to premature discontinuation of study drug; Treatment-emergent serious adverse events (SAEs) up to EOS; and, Abnormalities in physical examination.

Rat toxicology, NOAEL = conditions: male, in vivo
Description: The initial dose in the first cohort was ≤ 1/10 of the human equivalent dose (HED) estimated from the NOAEL (no observed adverse effect level) of the (male) rat, which is the most sensitive species, following the FDA guidance on the maximum recommended starting dose (MRSD) and EMA guidelines. The NOAEL of the rat is 6 mg/kg. […] The HED of 0.97 mg/kg was calculated; this scaled in a 70 kg human to 68 mg. Adjusting this dose to 1/10, the dose of the first cohort was 6.8; the actual administered dose will be 5 mg.

HTT protein = test: Phase 1 study, HTT protein in blood of healthy volunteers (MAD); type: in vivo, human; conditions: after 21 days of treatment (MAD)
Text: (§1) The multiple ascending (MAD) part of the study was randomized, double-blind, and placebo controlled in healthy male and female subjects. Up to five regimens are planned to be tested in up to 5 cohorts of 8 subjects each (Cohort 2.1 to 2.5). Within each cohort, 6 subjects were to receive Compound 1 and 2 subjects were to receive placebo. Subjects in Cohort 2.1 and 2.2 were to be dosed for 14 days, subjects in Cohort 2.3 to 2.5 were to be dosed for up to 21 days.
In untreated cells, there is a steady state level of mRNA and protein because the amount of mRNA or protein being synthesized matches the amount that is being degraded, so that the mRNA and protein levels are the same over time. The addition of Compound 1 triggers the inclusion of the HTT pseudoexon into the transcript which results in the rapid decay of the HTT mRNA and a reduction of HTT mRNA to […]. […] In this example, ˜50% of newly synthesized mRNA was inhibited. Of the HTT mRNA synthesized prior to treatment, about 50% is degraded after 24 hours. The HTT protein level depends on how much mRNA is produced. Thus, a reduction by 50% would cause a 50% reduction of the HTT protein. […] Changes in HTT protein levels were assessed in MAD cohort over a longer period of time. Accordingly, healthy subjects were treated for 21 days before the amount of HTT mRNA and protein was measured in blood samples taken from each subject. […]

HTT mRNA [3] = test: Phase 1 study, HTT mRNA in whole blood of healthy volunteers; type: in vivo, human; conditions: for Mean decrease in full-length HTT mRNA levels: after 14 days of treatment (MAD)
Description: The Phase 1 study was conducted in 5 parts: single ascending doses (SAD)(Part 1), multiple ascending doses (MAD)(Part 2), CSF and blood sampling after 7 days of Compound 1 administration (Part 3), food effect (Part 4), and multiple dosing for up to 28 days (Part 5). Part 1, Part 2, and Part 5 are double blind; Part 3 and Part 4 are open-label. Note that Part 3, Part 4, and Part 5 may be conducted concurrently.
The single ascending dose (SAD) part of the study was randomized, double-blinded, and placebo controlled in healthy male and female subjects.
as §1
The amount of HTT mRNA was then evaluated by RT-PCR 6 hours after administration of Compound 1 on day 14.

HTT mRNA [4] = test: PK-PD compartment model and decay-rate modelling of HTT mRNA and protein lowering; parameters: species or system human
Text: (§2) HTT mRNA reaches steady state after approximately 5 days. For HTT protein, the half-life was estimated to be 5-7 days and consequently HTT protein steady state levels would only be attained about 6 weeks from the beginning of treatment.
(§3) A target 30% to 50% decrease in mHTT is the range associated with decreased pathology and anticipated therapeutic benefit in patients. In the Phase 1 study, Compound 1-mediated HTT pre-mRNA splicing was dose dependent across all cohorts in both the SAD and MAD portions of the study. Mean decreases in full-length HTT mRNA levels of 40% and 60% were observed after 14 days of treatment with Compound 1 at 15 mg and 30 mg, respectively. On the basis of these clinical data, a PK-PD compartment model was used to simulate percentage of mRNA decreases (and thus the anticipated magnitude of HTT protein lowering) at additional potential clinical doses.

[5] = as above; parameters: species or system human; conditions: 30 mg daily dose, model based on half-life
Text: as §2, §3

CC1(C)CC(n2nnc3cc(-c4ccc(-n5nccn5)cc4O)nnc32)CC(C)(C)N1 [Compound 1, 2-[3-(2,2,6,6-tetramethylpiperidin-4-yl)-3H-[1,2,3]triazolo[4,5-c]pyridazin-6-yl]-5-(2H-1,2,3-triazol-2-yl)phenol]
drug half-life ([1]; MAD cohort): long drug half-life
Compound levels in the CSF compared with plasma ([1]; healthy subjects, 30 mg daily dose): equal to or greater than levels observed in plasma
dose-limiting toxicities ([2]; SAD and MAD portions): no events considered to be dose-limiting toxicities
laboratory abnormalities and ECG findings ([2]; any dose, SAD and MAD portions): no clinically significant laboratory abnormalities or electrocardiogram (ECG) findings
safety and tolerability ([2]; single doses 5 to 135 mg, multiple doses 15 and 30 mg up to 21 days): well-tolerated with no safety-related findings; also recorded: safe and generally well tolerated
NOAEL (Rat toxicology, NOAEL; (male) rat, germ cell exfoliation in epididymis and testes, read-out: NOAEL (no observed adverse effect level)): 6 mg/kg
NOAEL (Rat toxicology, NOAEL; from rat NOAEL, read-out: human equivalent dose (HED) estimated from the NOAEL): 0.97 mg/kg
lowering in the amount of HTT protein (HTT protein): approximately 40%
Mean decrease in full-length HTT mRNA levels (HTT mRNA [3]; 15 mg): 40%
Mean decrease in full-length HTT mRNA levels (HTT mRNA [3]; 30 mg): 60%
maintenance of splicing following the last dose (HTT mRNA [3]; MAD cohort): up to 72 hours
HTT mRNA in whole blood (HTT mRNA [3]; MAD: 15 mg or 30 mg for 14 days, 6 hours after dose on day 14): dose-dependent lowering of HTT mRNA
time for HTT mRNA levels to reach steady state (HTT mRNA [3]; Multiple Ascending Dose Study): 4 to 5 days
total amount of HTT mRNA (HTT mRNA [3]; SAD cohort, 24 hours after dose, even with higher concentrations): about 50 % of baseline
persistence of HTT splicing effect post cessation of treatment (HTT mRNA [3]; SAD cohorts): 72 h
HTT mRNA in whole blood (HTT mRNA [3]; SAD: 5, 15, 45, 90 or 135 mg, 24 hours after dose): dose-dependent lowering of HTT mRNA
HTT mRNA lowering (target level achieved) (HTT mRNA [3]; lowest dose tested, both SAD and MAD cohorts): 30-50%
predicted percent full-length HTT mRNA decrease from baseline (HTT mRNA [4]; 10 mg QD and 20 mg QD, PK-PD compartment model): 30 to 50%
predicted time for HTT mRNA to reach steady state (HTT mRNA [4]; 30 mg daily dose, model based on half-life): approximately 5 days
predicted time for HTT protein steady state levels [5]: about 6 weeks
